Columns and labels:
[1] = biological target: Serotonin 2 receptors; 5-HT2a & 5-HT2c (Homo sapiens) (UniProt P28223+P28335); assay: Selectivity expressed as ratio of serotonin 5-HT2C receptor over serotonin 5-HT2A receptor; type: protein assay
[2] = biological target: T1, 5-hydroxytryptamine receptor 2C (Homo sapiens, UniProt P28335); assay: Binding affinity towards human cloned 5-hydroxytryptamine 2C receptor of HEK293 cells by displacement of [3H]mesulergine; type: cell-based
T1 sequence (P28335 whole entry): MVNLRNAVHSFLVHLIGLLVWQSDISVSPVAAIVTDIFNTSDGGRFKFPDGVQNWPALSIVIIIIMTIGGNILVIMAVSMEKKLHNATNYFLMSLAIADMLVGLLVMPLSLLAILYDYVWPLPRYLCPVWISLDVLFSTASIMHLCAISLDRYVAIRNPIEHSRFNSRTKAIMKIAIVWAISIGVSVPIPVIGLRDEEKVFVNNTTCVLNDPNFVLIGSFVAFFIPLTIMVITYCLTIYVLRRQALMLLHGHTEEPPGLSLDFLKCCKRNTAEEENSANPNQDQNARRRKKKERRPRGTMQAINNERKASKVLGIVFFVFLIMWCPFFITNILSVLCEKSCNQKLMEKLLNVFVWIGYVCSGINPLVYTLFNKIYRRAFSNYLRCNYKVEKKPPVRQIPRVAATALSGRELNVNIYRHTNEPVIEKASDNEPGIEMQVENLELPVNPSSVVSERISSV

[3] = biological target: 5-hydroxytryptamine receptor 2B (Homo sapiens, UniProt P41595); assay: Binding affinity towards human cloned 5-HT2B receptor of HEK293 cells by displacement of [3H]5-HT; type: cell-based
Sequence of 5-hydroxytryptamine receptor 2B (P41595 whole entry): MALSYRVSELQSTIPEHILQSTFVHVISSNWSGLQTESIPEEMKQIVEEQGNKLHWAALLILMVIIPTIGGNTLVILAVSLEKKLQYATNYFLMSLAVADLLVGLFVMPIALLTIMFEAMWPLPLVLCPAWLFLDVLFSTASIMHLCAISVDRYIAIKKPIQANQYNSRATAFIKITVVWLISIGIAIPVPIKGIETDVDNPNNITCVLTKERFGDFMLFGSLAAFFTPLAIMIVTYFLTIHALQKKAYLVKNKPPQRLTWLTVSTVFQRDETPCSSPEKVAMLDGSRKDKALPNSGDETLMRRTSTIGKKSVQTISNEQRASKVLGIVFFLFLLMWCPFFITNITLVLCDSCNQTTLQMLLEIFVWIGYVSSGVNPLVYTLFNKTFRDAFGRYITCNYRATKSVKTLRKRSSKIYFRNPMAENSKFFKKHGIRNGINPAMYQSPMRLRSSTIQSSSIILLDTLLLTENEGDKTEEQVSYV

Rattus norvegicus [4] = assay: Dose required to reverse mCPP induced hypolocomotion by 50% at 7 mg/kg, ip administration 30 min pretest; type: functional; conditions: 0.5 h, route intraperitoneal, read-out: ID50 (the source's name)
[5] = biological target: 5-hydroxytryptamine receptor 2A (Homo sapiens, UniProt P28223); assay: Binding affinity towards human cloned 5-hydroxytryptamine 2A receptor of HEK293 cells by displacement of [3H]ketanserin; type: cell-based
Sequence of 5-hydroxytryptamine receptor 2A (P28223 whole entry): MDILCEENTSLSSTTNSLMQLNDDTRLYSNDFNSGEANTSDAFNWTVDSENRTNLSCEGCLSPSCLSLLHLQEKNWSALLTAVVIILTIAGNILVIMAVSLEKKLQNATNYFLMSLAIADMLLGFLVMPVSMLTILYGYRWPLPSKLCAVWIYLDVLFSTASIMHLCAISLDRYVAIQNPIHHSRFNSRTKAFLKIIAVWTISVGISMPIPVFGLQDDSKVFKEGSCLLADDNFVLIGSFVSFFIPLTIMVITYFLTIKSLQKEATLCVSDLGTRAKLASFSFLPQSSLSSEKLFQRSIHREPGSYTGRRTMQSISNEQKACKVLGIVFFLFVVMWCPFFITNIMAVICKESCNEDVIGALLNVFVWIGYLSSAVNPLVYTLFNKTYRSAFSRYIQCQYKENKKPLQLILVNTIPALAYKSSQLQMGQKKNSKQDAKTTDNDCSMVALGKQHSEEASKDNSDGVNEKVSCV

[6] = biological target: Serotonin receptor (2b and 2c) (Homo sapiens) (UniProt P41595+P28335); assay: Selectivity expressed as ratio of serotonin 5-HT2C receptor over serotonin 5-HT2B receptor; type: protein assay
Rattus norvegicus [7] = assay: Percent reversal of mCPP induced hypolocomotion after peroral administration at 5 mg/kg in rat; type: functional; conditions: route oral

Sequence of Serotonin 2 receptors; 5-HT2a & 5-HT2c (Homo sapiens) (P28223 whole entry, looked up, one chain of several): as the sequence (P28223 whole entry) above

| SMILES | Selectivity [1] | Ki [2] [µM] | Ki [3] [µM] | ED50 (Rattus norvegicus [4]) [mg/kg] | Ki [5] [µM] | Selectivity [6] | Reversal (Rattus norvegicus [7]) [%] |
| --- | --- | --- | --- | --- | --- | --- | --- |
| Cc1cc2c(cc1C(F)(F)F)N(C(=O)Nc1cnc(Oc3cccnc3C)c(Cl)c1)CC2 | 160 | 0.00158 | 0.0398 | > 5 | 0.251 | 25 |  |
| Cc1ncccc1Oc1ccc(NC(=O)N2CCc3cc(I)ccc32)cn1 | 500 | 0.00316 | 0.316 |  | 1.58 | 100 | 14 |
| Cc1cc2c(cc1Cl)N(C(=O)Nc1cnc(Oc3cccnc3C)nc1)CC2 | > 200 | 0.00316 | 0.0631 | 3.7 | > 0.631 | 20 |  |
| CSc1cc2c(cc1C(F)(F)F)N(C(=O)Nc1ccc(Oc3cccnc3C)nc1)CC2 | 630 | 0.000398 | 0.0398 |  | 0.251 | 100 | 31 |
| Cc1ncccc1Oc1ccc(NC(=O)N2CCc3cc(C(F)(F)F)ccc32)cn1 | 630 | 0.00398 | 0.631 | 2.1 | 2.51 | 160 |  |
| Cc1ncccc1Oc1ccc(NC(=O)N2CCc3cc(Cl)c(Cl)cc32)cn1 | 130 | 0.002 | 0.316 |  | 0.251 | 160 | 32 |
| Cc1ncccc1Oc1ccc(NC(=O)N2CCc3ccccc32)cn1 | > 100 | 0.1 | 2 |  | > 10 | 20 |  |
| Cc1cc2c(cc1Cl)N(C(=O)Nc1ccc(Oc3cccnc3C)nn1)CC2 | 800 | 0.002 | 0.158 | 1.6 | 1.58 | 80 |  |
| Cc1ncccc1Oc1ccc(NC(=O)N2CCc3cc(Br)c(C(F)(F)F)cc32)cn1 | 100 | 0.00126 | 0.1 | 2 | 0.126 | 80 |  |
| Cc1cc2c(cc1Cl)CCN2C(=O)Nc1ccc(Oc2cccnc2C)nc1 | 130 | 0.00126 | 0.126 |  | 0.158 | 100 | 7.3 |
| COc1cc2c(cc1C(F)(F)F)N(C(=O)Nc1ccc(Oc3cccnc3C)nc1)CC2 | 1300 |  |  |  |  | 80 |  |
| Cc1ncccc1Oc1ccc(NC(=O)N2CCc3cc(F)ccc32)cn1 | > 250 | 0.0398 | 5.01 |  | > 10 | 130 | 4 |
| Cc1cc2c(cc1Cl)N(C(=O)Nc1ccc(Oc3cnccc3C)nc1)CC2 | 8 | 0.001 | 0.0316 |  | 0.00794 | 30 |  |
| Cc1ncccc1Oc1ccc(NC(=O)N2CCc3c(Cl)cccc32)cn1 | > 630 | 0.0158 | 2.51 |  | > 10 | 160 | 6 |
| Cc1cc2c(cc1C(F)(F)F)N(C(=O)Nc1cnc(Oc3cccnc3C)cn1)CC2 | 320 | 0.002 | 0.0794 | 3.6 | 0.631 | 40 |  |
| Cc1ncccc1Oc1ccc(NC(=O)N2CCc3cc(Cl)ccc32)cn1 | > 1600 | 0.00631 | 2 |  | > 10 | 320 | 40 |
| Cc1ncccc1Oc1ccc(NC(=O)N2CCc3cc(Br)ccc32)cn1 | > 1300 | 0.00316 | 0.631 |  | > 3.98 | 200 | 10 |
| Cc1cc2c(cc1Cl)N(C(=O)Nc1cnc(Oc3cccnc3C)c(C)c1)CC2 | 80 | 0.00158 | 0.0316 | 0.8 | 0.126 | 20 |  |
| Cc1cc2c(cc1Cl)N(C(=O)Nc1cnc(Oc3cccnc3C)c(Cl)c1)CC2 | 200 | 0.000631 | 0.02 | > 5 | 0.126 | 30 |  |
| Cc1ncccc1Oc1ccc(NC(=O)N2CCc3ccc(Cl)cc32)cn1 | 80 | 0.00398 | 0.794 |  | 0.316 | 200 | 3 |
| Cc1ccc2c(c1Br)CCN2C(=O)Nc1ccc(Oc2cccnc2C)nc1 | > 630 | 0.00158 | 0.251 |  | > 1 | 160 | 0 |

| SMILES | Selectivity [1] | Ki [2] [µM] | Ki [3] [µM] | ED50 (Rattus norvegicus [4]) [mg/kg] | Ki [5] [µM] | Selectivity [6] | Reversal (Rattus norvegicus [7]) [%] |
| --- | --- | --- | --- | --- | --- | --- | --- |
| Cc1ncccc1Oc1ccc(NC(=O)N2CCc3c2cc(C(F)(F)F)c2c3CCO2)cn1 | 400 | 0.00126 | 0.0631 | 9 | 0.501 | 50 |  |
| CCc1cc2c(cc1C(F)(F)F)N(C(=O)Nc1ccc(Oc3cccnc3C)nc1)CC2 | 200 | 0.00251 | 0.126 |  | 0.501 | 50 | 12 |
| Cc1cc2c(cc1C(F)(F)F)N(C(=O)Nc1ccc(Oc3cccnc3C)nn1)CC2 | 130 | 0.00316 | 0.126 | 1.2 | 0.398 | 40 |  |
| Cc1ncccc1Oc1ccc(NC(=O)N2CCc3c2ccc(Cl)c3Cl)cn1 | 1000 | 0.00316 | 0.501 |  | 3.16 | 160 | 4 |
| CCCc1ncccc1Oc1ccc(NC(=O)N2CCc3cc(C)c(Cl)cc32)cn1 | 100 | 0.00158 | 0.1 |  | 0.158 | 60 | 18 |
| CCc1ncccc1Oc1ccc(NC(=O)N2CCc3cc(C)c(Cl)cc32)cn1 | 100 | 0.002 | 0.0501 | 1.8 | 0.2 | 25 |  |
| Cc1cc2c(cc1Cl)N(C(=O)Nc1ccc(Oc3cccnc3C)nc1)CC2 | 160 |  |  |  |  | 100 |  |
| Cc1ncccc1Oc1ccc(NC(=O)N2CCc3c2cc(Cl)c(C)c3Cl)cn1 | 60 | 0.001 | 0.0398 |  | 0.0631 | 40 | 85 |
| Cc1ncccc1Oc1ccc(NC(=O)N2CCc3c2cccc3C(F)(F)F)cn1 | > 50 | 0.2 | > 10 |  | > 10 | > 50 |  |
| Cc1cc2c(cc1Cl)N(C(=O)Nc1ccc(Oc3cccnc3C(C)C)nc1)CC2 | 6 | 0.126 | 0.2 |  | 0.794 | 2 |  |
| Cc1ncccc1Oc1ccc(NC(=O)N2CCc3cc(F)c(Cl)cc32)cn1 | 80 | 0.00631 | 0.631 |  | 0.501 | 100 | 16 |
| Cc1ncccc1Oc1ccc(NC(=O)N2CCc3c(Br)cccc32)cn1 | > 400 | 0.0158 | > 2 |  | > 6.31 | > 130 | 3 |
| Cc1cc2c(cc1Cl)N(C(=O)Nc1ccc(Oc3cnccc3Cl)nc1)CC2 | 30 | 0.000501 | 0.0126 |  | 0.0158 | 25 |  |
| Cc1cc2c(cc1C(F)(F)F)N(C(=O)Nc1ccc(Oc3cncnc3C)nc1)CC2 | 40 | 0.002 | 0.0126 |  | 0.0794 | 6 |  |
| Cc1ncccc1Oc1ccc(NC(=O)N2CCc3ccc(C(F)(F)F)cc32)cn1 | 30 | 0.00501 | 0.398 |  | 0.158 | 80 |  |
| Cc1cc2c(cc1C(F)(F)F)N(C(=O)Nc1ccc(Oc3cccnc3C)nc1)CC2 [SB-243213] | 160 |  |  | 1 |  | 100 |  |
| Cc1cc2c(cc1F)N(C(=O)Nc1ccc(Oc3cccnc3C)nc1)CC2 | 500 | 0.00158 | 0.158 |  | 0.794 | 100 | 46 |
| COc1cc2c(cc1C(F)(F)F)N(C(=O)Nc1cnc(Oc3cccnc3C)cc1C)CC2 | 3 | 0.2 | 0.251 |  | 0.631 | 1.3 |  |
| Cc1cc2c(cc1Br)N(C(=O)Nc1ccc(Oc3cccnc3C)nc1)CC2 | 200 | 0.000794 | 0.0631 |  | 0.158 | 80 | 49 |
| Cc1cc2c(cc1Cl)N(C(=O)Nc1ccc(Oc3cccnc3Cl)nc1)CC2 | 80 | 0.00126 | 0.0501 | 4.5 | 0.1 | 40 |  |

Reference: ChEMBL document CHEMBL1133064, “1-[2-[(Heteroaryloxy)heteroaryl]carbamoyl]indolines: novel and selective 5-HT2C receptor inverse agonists with potential as antidepressant/anxiolytic agents” (Bioorg Med Chem Lett, 2000)
